Measured values from ChEMBL document CHEMBL1201862, “PubChem BioAssay data set” (2004).
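Compound exposure: 48 hours, 5 concentrations, 96-well plates. GI50 marks 50% less growth.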 Activity calls are given as the source filed them. No stated cut-off is given here; in the data, active = GI50 up to about 1.1 µM and inactive = higher.

Columns and labels:
Assay in all cases: NCI tumour cell line growth inhibition, 48 h
KM-20L2 = system: KM-20L2
DMS-273 = system: DMS-273
RXF 631 = system: RXF 631
LXFL 529 = system: LXFL 529
HOP-18 = system: HOP-18
M19-MEL = system: M19-MEL
DMS-114 = system: DMS-114

Measured: GI50

CCCOC(=O)CCC(NC(=O)c1ccc(Nc2nc3ccccc3nc2-c2cccs2)cc1)C(=O)OCCC (stereo unspecified)
inactive: KM-20L2 > 100 µM | DMS-273 > 100 µM | RXF 631 > 100 µM | LXFL 529 > 100 µM | HOP-18 > 100 µM | M19-MEL > 100 µM

Cc1cccc2c1Sc1ccccc1C2NC(=O)CN(C)C (stereo unspecified)
inactive: KM-20L2 18.7 µM | DMS-273 > 100 µM | LXFL 529 > 100 µM | DMS-114 > 100 µM | M19-MEL 47.4 µM
